Data reported in BindingDB's records for doi:10.7270/Q20V8B80 (The Scripps Research Institute Molecular Screening Center, 2011).

Molecular target: T1, Caspase-7 (Homo sapiens, UniProt P55210)
T1 sequence (P55210 whole entry): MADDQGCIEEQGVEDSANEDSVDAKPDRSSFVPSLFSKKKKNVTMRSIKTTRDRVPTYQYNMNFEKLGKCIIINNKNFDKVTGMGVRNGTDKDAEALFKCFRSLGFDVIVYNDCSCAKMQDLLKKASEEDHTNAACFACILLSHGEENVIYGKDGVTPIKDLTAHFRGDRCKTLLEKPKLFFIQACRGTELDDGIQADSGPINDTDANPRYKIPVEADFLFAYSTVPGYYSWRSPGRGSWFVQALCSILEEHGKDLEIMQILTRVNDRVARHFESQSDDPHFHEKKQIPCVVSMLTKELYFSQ
Assay: potency of procaspase-7 enzyme activation – biochemical, absorbance, human, dual procaspase-3/-7 activator project, dose response (AID 504330)

Row | EC50 [µM] | SMILES
1 | 27.8 | Cc1[nH]nc2c1C(c1c[nH]c3ccccc13)C(C#N)C(=N)O2 (configuration not stated) [MLS001030009]
2 | > 85.3 | C=CC=Nc1c(Cl)c(O)n(-c2cccc(Cl)c2Cl)c1O [MLS000533809]
3 | > 85.3 | CCOc1ccc(NC=C2C(=O)CC(c3ccco3)CC2=O)cc1 (configuration not stated) [SMR000268302]

More lines, now with the values behind:

Row | SMILES | EC50 [µM]
4 | CCOC(=O)C(C#N)C=Nc1cc(OC)ccc1OC (configuration not stated) [(E)-2-Cyano-3-(2,5-dimethoxy-phenylamino)-acrylic acid ethyl ester] | > 85.3
5 | COc1ccccc1-n1c(O)c2n(-c3ccccc3)[nH]c(C(=O)c3ccccc3)c-2c1=O | > 85.3
6 | O=C(c1ccccc1)c1[nH]n(-c2ccccc2)c2c(O)n(-c3ccccc3)c(=O)c1-2 [3-benzoyl-1,5-diphenyl-3a,6a-dihydropyrrolo[3,4-c]pyrazole-4,6-dione] | > 85.3
7 | COC(=O)c1[nH]n(-c2ccc(Cl)cc2)c2c(O)n(-c3ccccc3OC)c(=O)c1-2 [1-(4-Chloro-phenyl)-5-(2-methoxy-phenyl)-4,6-dioxo-1,3a,4,5,6,6a-hexahydro-pyrrolo[3,4-c]pyrazole-3-carboxylic acid methyl ester] | > 85.3
